Laboratory results as given in US20220387268A1, “OIL-IN-WATER MACROEMULSION” (SYMRISE AG, priority 2019, published 2022).

How the values were obtained:
water solubility = type: physicochemical; details: room temperature
[1] = log P value (octanol:water); type: physicochemical; details: water/n-octanol
Description: The partition coefficient (P) is the ratio of concentrations of a compound in a mixture of two immiscible solvents at equilibrium. This ratio is therefore a comparison of the solubility of the solute in these two liquids. In the chemical and pharmaceutical sciences, both phases usually are solvents. Most commonly, one of the solvents is water, while the second is hydrophobic such as 1-octanol.
Log P=log 10(Partition Coefficient)
Partition Coefficient,P=[organic]/[aqueous]

| SMILES | Water solubility (water solubility) [µg/mL] | log P [1] |
| --- | --- | --- |
| CCCCCC1C(=O)CCC1CC(=O)OC (stereo not shown) [HEDION] | 401.5 | – |
| C=CC(C)CCCC(C)(C)O (stereo not shown) [DIHYDROMYRCENOL] | 671.2 | 3.47 |
| O=C1CCCCCCCCCCCC(=O)OCCO1 [ETHYLENBRASSYLAT] | 20.9 | 4.71 |
| CC(=O)OC1CCCCC1C(C)(C)C (stereo not shown) [AGRUMEX LC] | 17.6 | – |
| CC(C=O)Cc1ccc(C(C)C)cc1 (stereo not shown) | 17.8 | 3.91 |
| CCCCCC1CCC(=O)O1 (stereo not shown) [ALDEHYD C18 SOG.] | 2373.1 | – |
| CCCC(=O)OC(C)(C)Cc1ccccc1 [DIMETHYLBENZYLCARBINYLBUTYRAT] | – | 4.43 |
| CCCCCC/C(C=O)=C\c1ccccc1 [HEXYLZIMTALDEHYD ALPHA] | 1.2 | 4.82 |
| O=Cc1ccc2c(c1)OCO2 [HELIOTROPIN/PIPERONAL] | 2260.1 | 1.77 |
| CCC(C)(O)CCCC(C)C (stereo not shown) [TETRAHYDROLINALOOL] | 492.4 | 3.6 |
